Assay results reported in patent KR20170031305A, “방사성 요오드 표지 아자이드 추적체, 이의 제조방법 및 이를 유효성분으로 포함하는 방사성 요오드 표지 또는 의료 진단용 조성물” (한국원자력연구원, priority 2015, dated 2017).

What was measured:
[1] = Stability in normal mouse serum at 37 °C, radio-TLC (Experimental Example 2); type: in vitro ADME
[2] = Biodistribution in ICR mice after intravenous injection, gamma counter (Experimental Example 3); type: in vivo; conditions: ICR male mice, i.v., 1 μCi/100 μL per mouse

For `[N-]=[N+]=NCCOCCOCCOCCNC(=O)c1ccc([125I])cc1` [실시예 1, 125I이 표지된 N-(2-(2-(2-(2-아지도에톡시)에톡시)에톡시)에틸)-4-아이오도벤즈아마이드], the “decrease of radiochemical purity in mouse serum” value ([1]; after 5 h) was “거의 감소하지 않고”, the remaining at 5 h ([1]; after 5 h, read-out: radiochemical purity in mouse serum) was ≥ 95% and the remaining at 24 h ([1]; after 24 h, read-out: radiochemical purity in mouse serum) was ≥ 90%. For the same compound, the “time to absorption and accumulation in liver and kidney” value [2] was ≤ 15 min, the tissue uptake at 1 h ([2]; liver and kidney, iv, 1 uCi/animal, within 1 h, read-out: concentration (liver and kidney)) was ≤ 20 %ID/g and the tissue uptake at 2 h ([2]; liver and kidney, iv, 1 uCi/animal, within 2 h, read-out: concentration (liver and kidney)) was ≤ 10 %ID/g. The “accumulation in liver and kidney” value ([2]; within 15 min) was “높은 농도로 집적” and the “excretion from the body” value ([2]; within 2 h) was ≥ 90%.
